According to US9113629B2, “4-amino-6-(4-substituted-phenyl)-picolinates and 6-amino-2-(4-substituted-phenyl)-pyrimidine-4-carboxylates and their use as herbicides” (DOW AGROSCIENCES LLC, priority 2013, dated 2015):
Read-outs that look alike come from different tables or passages of the source.

Legend:
[1] = system: Key Broadleaf Weed and Crop Species; assay: Post-emergent Test II herbicidal activity (Table 5); assay type: in vivo; details: post-emergence, 336 h, post-emergent, 14 days after application; for pest or weed control at 70 g/ha: application rate 70 g ai/ha; for pest or weed control at 140 g/ha: application rate 140 g ai/ha
In short: (§1)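 Post-emergence foliar spray, 187 L/ha, track sprayer at 43 cm above canopy. Carrier: acetone/water/IPA/DMSO/Atplus 411F/Triton X-155. Plants at 1st–2nd true leaf; subirrigated afterwards; % injury scored visually at 14 d.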

[2] = system: Key Grass and Sedge Weeds as well as Grass Crops; assay: Post-emergent Test II herbicidal activity (Table 6); assay type: in vivo; details: post-emergence, 336 h; for pest or weed control at 70 g/ha: application rate 70 g ai/ha; for pest or weed control at 140 g/ha: application rate 140 g ai/ha
In short: as §1

[3] = ABUTH: velvetleaf (Abutilon theophrasti), read-out: Visual Growth Reduction (%) 14 Days After Application, ABUTH
[4] = AMARE: redroot pigweed (Amaranthus retroflexus), read-out: Visual Growth Reduction (%) 14 Days After Application, AMARE
[5] = BRSNN: oilseed-rape, canola (Brassica napus), read-out: Visual Growth Reduction (%) 14 Days After Application, BRSNN
[6] = CHEAL: lambsquarters (Chenopodium album), read-out: Visual Growth Reduction (%) 14 Days After Application, CHEAL
[7] = EPHHL: wild poinsettia (Euphorbia heterophylla), read-out: Visual Growth Reduction (%) 14 Days After Application, EPHHL
[8] = HELAN: sunflower (Helianthus annuus), read-out: Visual Growth Reduction (%) 14 Days After Application, HELAN
[9] = VIOTR: wild pansy (Viola tricolor), read-out: Visual Growth Reduction (%) 14 Days After Application, VIOTR
[10] = CYPES: yellow nutsedge (Cyperus esculentus), read-out: Visual Growth Reduction (%) 14 Days After Application, CYPES
[11] = DIGSA: crabgrass (Digitaria sanguinalis), read-out: Visual Growth Reduction (%) 14 Days After Application, DIGSA
[12] = ECHCG: barnyardgrass (Echinochloa crus-galli), read-out: Visual Growth Reduction (%) 14 Days After Application, ECHCG
[13] = ORYSA: rice (Oryza sativa), read-out: Visual Growth Reduction (%) 14 Days After Application, ORYSA
[14] = SETFA: giant foxtail (Setaria faberi), read-out: Visual Growth Reduction (%) 14 Days After Application, SETFA
[15] = SORVU: grain sorghum (Sorghum vulgare), read-out: Visual Growth Reduction (%) 14 Days After Application, SORVU
[16] = TRZSS (wheat, Triticum aestivum), read-out: Visual Growth Reduction (%) 14 Days After Application, TRZSS
[17] = ZEAMX: maize, corn (Zea mays), read-out: Visual Growth Reduction (%) 14 Days After Application, ZEAMX

Compound: Nc1cc(-c2cc(F)c(C(F)F)cc2F)nc(C(=O)O)c1Cl [Compound 174]
- pest or weed control at 70 g/ha [1, 3]: 75 to 84%
- pest or weed control at 140 g/ha [1, 3]: 75 to 84%
- pest or weed control at 70 g/ha [1, 4]: 95 to 100%
- pest or weed control at 140 g/ha [1, 4]: 95 to 100%
- pest or weed control at 70 g/ha [1, 5]: 95 to 100%
- pest or weed control at 140 g/ha [1, 5]: 95 to 100%
- pest or weed control at 70 g/ha [1, 6]: 95 to 100%
- pest or weed control at 140 g/ha [1, 6]: 95 to 100%
- pest or weed control at 70 g/ha [1, 7]: 95 to 100%
- pest or weed control at 140 g/ha [1, 7]: 95 to 100%
- pest or weed control at 70 g/ha [1, 8]: 95 to 100%
- pest or weed control at 140 g/ha [1, 8]: 95 to 100%
- pest or weed control at 70 g/ha [1, 9]: 45 to 59%
- pest or weed control at 140 g/ha [1, 9]: 60 to 74%
- pest or weed control at 70 g/ha [2, 10]: 60 to 74%
- pest or weed control at 140 g/ha [2, 10]: 85 to 94%
- pest or weed control at 70 g/ha [2, 11]: 0 to 29%
- pest or weed control at 140 g/ha [2, 11]: 45 to 59%
- pest or weed control at 70 g/ha [2, 12]: 60 to 74%
- pest or weed control at 140 g/ha [2, 12]: 85 to 94%
- pest or weed control at 70 g/ha [2, 13]: 0 to 29%
- pest or weed control at 140 g/ha [2, 13]: 0 to 29%
- pest or weed control at 70 g/ha [2, 14]: 0 to 29%
- pest or weed control at 140 g/ha [2, 14]: 45 to 59%
- pest or weed control at 70 g/ha [2, 15]: 0 to 29%
- pest or weed control at 140 g/ha [2, 15]: 0 to 29%
- pest or weed control at 70 g/ha [2, 16]: 0 to 29%
- pest or weed control at 140 g/ha [2, 16]: 0 to 29%
- pest or weed control at 70 g/ha [2, 17]: 0 to 29%
- pest or weed control at 140 g/ha [2, 17]: 0 to 29%
- melting point: 171.8 to 173.9 °C
